This is an account of results in PMC8594528 (Proceedings of the National Academy of Sciences of the …, 2021).

In test [1] the target is T1, GSK-3β (Homo sapiens, UniProt P49841).
T1 construct: gene GSK3B; human recombinant GSK-3β
Kind of test: in vitro kinase assay with recombinant GSK-3β; tau or immunoprecipitated N protein as substrate, gel mobility shift. Format: biochemical.

The target of test [2] is T1, GSK-3β. Kind of test: in vitro kinase assay with recombinant GSK-3β and immunoprecipitated N protein as substrate, single concentration ([…]). Format: biochemical.

T1 sequence (P49841 whole entry): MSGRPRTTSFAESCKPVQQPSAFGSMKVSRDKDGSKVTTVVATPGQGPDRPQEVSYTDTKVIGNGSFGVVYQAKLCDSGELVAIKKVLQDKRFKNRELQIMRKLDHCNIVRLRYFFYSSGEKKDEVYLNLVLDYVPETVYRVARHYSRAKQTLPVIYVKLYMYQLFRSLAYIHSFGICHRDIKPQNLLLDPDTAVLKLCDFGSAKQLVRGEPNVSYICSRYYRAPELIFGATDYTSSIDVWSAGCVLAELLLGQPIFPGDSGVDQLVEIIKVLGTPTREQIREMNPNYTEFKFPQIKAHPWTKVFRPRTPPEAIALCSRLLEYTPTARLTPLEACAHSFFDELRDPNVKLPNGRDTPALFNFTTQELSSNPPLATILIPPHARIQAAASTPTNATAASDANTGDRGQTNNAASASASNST

As for `Cn1cc(C2=C(c3cn(C4CCN(Cc5ccccn5)CC4)c4ccccc34)C(=O)NC2=O)c2ccccc21` [Enzastaurin], the “in vitro kinase assay with recombinant GSK-3β; tau or immunoprecipitated N prote” value at GSK-3β [1] was determined as 0.5 µM.
Regarding `Cc1c[nH]c(-c2cnc(NCCNc3ccc(C#N)cn3)nc2-c2ccc(Cl)cc2Cl)n1` [CHIR99021], the “in vitro kinase assay with recombinant GSK-3β and immunoprecipitated N protein a” value at GSK-3β [2] was found to be 2 µM.
